Data on three compounds can be found in patent US20210395327A1, “Growth Hormone-Releasing Hormone Antagonists and Uses Thereof” (United States Government As Represented By The Department …, priority 2019, published 2021).

The term % Inhibition denotes how much of the control response was suppressed. Higher therefore signals strong suppression.

Structures are written as SMILES. Non-standard residues stand in square brackets, D forms with d. Residues, ends and D or L forms follow the SMILES beside them. *: point of attachment. Phenylacetyl(2,3,4,5,6-F5) = O=C(Cc1c(F)c(F)c(F)c(F)c1F)*; Phe(F5) = N[C@@H](Cc1c(F)c(F)c(F)c(F)c1F)C(=O)O; Phe(4-Cl) = N[C@@H](Cc1ccc(Cl)cc1)C(=O)O; hArg = N=C(N)NCCCC[C@H](N)C(=O)O; 12Ado = NCCCCCCCCCCCC(=O)O; Nle = CCCC[C@H](N)C(=O)O; Orn = NCCC[C@H](N)C(=O)O; Abu = CC[C@H](N)C(=O)O

The subject of experiment [1] is HT-29 colon cancer cells. The experiment in a line: In vitro cell viability, HT-29. The class given is cell-based, human. To be noted: Table 3B; 5 μM for 72 H; MIA-602 = 1. As for the experimental part:
The inhibitory effects of the various synthesized GHRH antagonists were tested in cell proliferation assays in various human cancer cell lines including stomach cancer (KATOIII, N87), colon cancer (HT-29), urothelial cancer (J82, RT4), pancreatic cancer (PANC-1, CFPAC-1), prostatic cancer (PC3), breast cancer (MX-1, HCC1806), ovarian cancer (SK-OV-3, OVCAR-3) and lung cancer (HCC827, H460).
Cell culture. Human cancer cell lines including pancreatic (PANC-1 and CFPAC-1), lung (HCC827 and H460), stomach (NCI-N87 and KATOIII), urothelial (J82, RT4), prostatic (PC3), breast (MX-1 and HCC 1806), colorectal (HT-29), and ovarian (SK-OV-3 and OVCAR-3) were obtained from the American Type Culture Collection (ATCC) and cultured at 37° C. in a humidified 95% air/5% CO2 atmosphere in the medium recommended by ATCC.
In vitro cell viability. Cell viability was analyzed as follows: cancer cells including pancreatic (PANC-1 and CFPAC-1), lung (HCC827 and H460), stomach (NCI-N87 and KATOIII), urothelial (J82, RT4), prostatic (PC3) and breast (MX-1 and HCC 1806), colorectal (HT-29) and ovarian (SK-OV-3 and OVCAR-3) were grown on 96 well plates to ˜60% confluence, the cells were starved for 24 h in culture medium containing 0.5% FBS. Cells were then treated with GHRH antagonists MIA602 AVR compounds at concentrations of 1, 2.5 or 5 μM, or vehicle (0.1% DMSO) in quintuplicates for 72 hours. The medium was replaced every 48 hours. Cell viability was measured using CellTiter 96 aqueous one solution kit (Promega). Inhibitory effects of tested AVR compounds in comparison to that of MIA602 are presented as inhibitory potency.
Inhibitory effects of selected AVR compounds in comparison to that of MIA602 are presented as inhibitory potency (e.g., percentage of inhibition). […] The cell lines tested including lung cancer HCC827 (FIG. 2A), pancreatic cancer CFPAC-1 (FIG. 2B), stomach cancer N87 (FIG. 2C), colon cancer HT-29 (FIG. 2D), breast cancers MX-1 and HCC1806 (FIGS. 2 E, F). Based on the results of cell proliferation assay after cancer cells were treated with antagonist at concentration of 5 μM for 72H, the relative inhibitory potency of AVR antagonists in comparison to MIA-602 is summarized in Table 3 A and B. Over 60 AVR compounds were tested in 12 cancer cell lines.
Based on the results of cell proliferation assay after cancer cells were treated with antagonist at concentration of 5 µM for 72H, * at concentration of 2 µM for 72 H.

The subject of experiment [2] is NCI-N87 stomach cancer cells. The experiment in a line: In vitro cell viability (CellTiter 96), N87. Type of experiment: cell-based, human. To be noted: Table 3B; 5 μM for 72 H; MIA-602 = 1. In outline:
(§1)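 Human tumour lines were exposed to GHRH antagonist at 1, 2.5 or 5 μM for 72 h with medium refreshed every 48 h, after 24 h in low-serum (0.5% FBS) medium. Cell viability (CellTiter 96) was expressed as inhibition relative to MIA602.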

Experiment [3] deals with stomach cancer N87 xenograft. In words: Xenograft tumor growth in nude mice, N87. The class given is in vivo. The conditions noted are these: Table 4E, Stomach Ca N87, 4 weeks; for % Inhibition: vs control. As for the experimental part: The peptides' activity was compared with GHRH antagonist MIA-602. All statistical analyzses were performed from comparing GHRA antagonists to non-treated tumor (control).
Peptides and chemicals. GHRH antagonists MIA-602 and AVR-GHRH antagonists (see Table 2 above) were synthesized by solid phase methods and purified by HPLC. The peptides were dissolved in DMSO and further diluted in 10% 1,2-propanediol. The final concentration of peptides was 50 µg/ml in 10% 1,2-propanediol containing 0.1% of DMSO.
Cell culture. Human cancer cell lines including pancreatic (PANC-1 and CFPAC-1), lung (HCC827 and H460), stomach (NCI-N87), prostate (PC3), brest (MX-1 and HCC-1806), colorectal (HT-29), and ovarian (SK-OV-3 and OVCAR-3) were obtained from the American Type Culture Collection (ATCC) and cultured at 37° C. in a humidified 95% air/5% CO2 atmosphere in the medium recommended by ATCC.
Xenograft models of human cancers in nude mice. Female athymic (NCr nu/nu) nude mice, 5- to 6-weeks-old, obtained from the Envigo labs (Tampa, Fla.), were housed in laminar airflow cabinets under pathogen-free conditions with a 12-h light/12-h dark schedule, and were fed autoclaved standard chow and water. To generate mice with xenografted tumors, tumor xenografts were initiated by subcutaneous (s.c.) injection of 107 human cancer cells into female nude mice. After about 4 weeks the resulting tumors were dissected and collected after removing necrosis tissues. The tumors were then cut into particles with size of 3 mm3 and transplanted s.c. by trocar needle into experimental animals. When tumors grew to the size of 50-60 mm3 (by volume), […] of 5 μg of GHRH antagonists MIA-602 or AVR-compounds (2-10 μg as indicated), or vehicle solutions (0.1% DMSO in 10% 1,2-propanediol) respectively. Tumor sizes were measured weekly.
Statistical analysis. One-way ANOVA followed by Bonferroni comparison were performed. Data are expressed as Mean±SEM. To determine statistical significance between animal groups, two-tailed Student's t-test was conducted. Differences were considered significant when p<0.05.
Results. […] FIG. 1A-N represents in vivo inhibition of tumor growth during the treatment with GHRH antagonist MIA-602 and selected AVR antagonists in nude mice xenografted with various human tumors including pancreatic cancer PANC-1 (FIG. 1A) and CFPAC-1 (FIG. 1I); lung cancer HCC827 (FIGS. 1B, C) and H460 (FIG. 1H); stomach cancer N87 (FIGS. 1D-F); colon cancer HT-29 (FIG. 1G); breast cancer MX-1 and HCC-1806 (FIGS. 1J, K); ovarian cancer SK-OV-3 and OVACAR-3 (FIGS. 1 L, M) and prostate cancer PC3 (FIG. 1N). See also Table 5.

For experiment [4], the system named is HCC827 lung cancer cells. In words: In vitro cell viability, HCC827. Type of experiment: cell-based, human. The conditions noted are these: Table 3B; 5 μM for 72 H; MIA-602 = 1. In outline:
as §1

In the case of `CCCC[C@H](NC(=O)[C@@H](NC(=O)[C@H](CC(=O)O)NC(=O)[C@H](CCC(N)=O)NC(=O)[C@H](CC(C)C)NC(=O)[C@H](CC(C)C)NC(=O)[C@H](CCCN)NC(=O)[C@H](Cc1c[nH]cn1)NC(=O)[C@H](C)NC(=O)[C@H](CO)NC(=O)[C@H](CC(C)C)NC(=O)[C@H](CCC(N)=O)NC(=O)[C@H](CC)NC(=O)[C@H](CC(C)C)NC(=O)[C@@H](NC(=O)[C@H](CCCN)NC(=O)[C@H](Cc1c[nH]cn1)NC(=O)[C@H](Cc1c(F)c(F)c(F)c(F)c1F)NC(=O)[C@H](CCCCNC(=N)N)NC(=O)[C@H](C)NC(=O)[C@@H](NC(=O)[C@H](Cc1ccc(Cl)cc1)NC(=O)[C@@H](NC(=O)[C@H](C)NC(=O)[C@H](CC(=O)O)NC(=O)[C@@H](CCCNC(=N)N)NC(=O)[C@H](Cc1ccc(O)cc1)NC(=O)CCCCCCCCCCCNC(=O)Cc1c(F)c(F)c(F)c(F)c1F)[C@@H](C)CC)[C@@H](C)O)C(C)C)[C@@H](C)CC)C(=O)N[C@H](CCCNC(=N)N)C(=O)N[C@@H](CCCCNC(=N)N)C(=O)NCCCCCCCCCCCC(=O)NC` [AVR-543, 5FPhAC-Ada-Tyr-DArg-Asp-Ala-Ile-Cpa-Thr-Ala-Har-5FPhe-His-Orn-Val-Leu-Abu-Gln-Leu-Ser-Ala-His-Orn-Leu-Leu-Gln-Asp-Ile-Nle-DArg-Har-Ada-NHCH3] ({Phenylacetyl(2,3,4,5,6-F5)-12Ado}-Y[dR]DAI[Phe(4-Cl)]TA[hArg][Phe(F5)]H[Orn]VL[Abu]QLSAH[Orn]LLQDI[Nle][dR][hArg][12Ado]-NHMe), the “In vitro relative inhibitory potency in comparison to MIA-602, HT-29” value (shortened to “In vitro relative inhibitory potency … HT-29”) in experiment [1] stood at 0.999. For the same compound, the “In vitro relative inhibitory potency in comparison to MIA-602, NCI-N87” value in experiment [2] worked out at 0.908. Moreover, in experiment [3] (2 μg/day s.c.), the “Tumor Growth %” value came out at 406.8% and the “% Inhibition” value came to 48.4%. Also, in experiment [3] (5 μg/day s.c.), the “Tumor Growth %” value was determined as 313.90% and the “% Inhibition” value was 64.8%. Also, the “In vitro relative inhibitory potency in comparison to MIA-602, HCC827” value (from here on “In vitro relative inhibitory potency … HCC827”) in experiment [4] worked out at 0.961.

Take `CCCC[C@H](NC(=O)[C@@H](NC(=O)[C@H](CC(=O)O)NC(=O)[C@H](CCC(N)=O)NC(=O)[C@H](CC(C)C)NC(=O)[C@H](CC(C)C)NC(=O)[C@H](CCCCN)NC(=O)[C@H](CCCNC(=N)N)NC(=O)[C@H](C)NC(=O)[C@H](CO)NC(=O)[C@H](CC(C)C)NC(=O)[C@H](CCC(N)=O)NC(=O)[C@H](CC)NC(=O)[C@H](CC(C)C)NC(=O)[C@@H](NC(=O)[C@H](CCCCN)NC(=O)[C@H](CCCNC(=N)N)NC(=O)[C@H](Cc1c(F)c(F)c(F)c(F)c1F)NC(=O)[C@H](CCCCNC(=N)N)NC(=O)[C@H](C)NC(=O)[C@@H](NC(=O)[C@H](Cc1ccc(Cl)cc1)NC(=O)[C@@H](NC(=O)[C@H](C)NC(=O)[C@H](CC(=O)O)NC(=O)[C@@H](CCCNC(=N)N)NC(=O)[C@H](Cc1ccc(O)cc1)NC(=O)CCCCCCCCCCCNC(=O)Cc1c(F)c(F)c(F)c(F)c1F)[C@@H](C)CC)[C@@H](C)O)C(C)C)[C@@H](C)CC)C(=O)N[C@H](CCCNC(=N)N)C(=O)N[C@@H](CCCCNC(=N)N)C(=O)NCCCCCCCCCCCC(=O)NC` [AVR-354] ({Phenylacetyl(2,3,4,5,6-F5)-12Ado}-Y[dR]DAI[Phe(4-Cl)]TA[hArg][Phe(F5)]RKVL[Abu]QLSARKLLQDI[Nle][dR][hArg][12Ado]-NHMe): in experiment [1], the “In vitro relative inhibitory potency … HT-29” value is 1.403. The “In vitro relative inhibitory potency … HCC827” value in experiment [4] is given as 2.595.

Regarding `CCCC[C@H](NC(=O)[C@@H](NC(=O)[C@H](CC(=O)O)NC(=O)[C@H](CCC(N)=O)NC(=O)[C@H](CC(C)C)NC(=O)[C@H](CC(C)C)NC(=O)[C@H](CCCCN)NC(=O)[C@H](CCCNC(=N)N)NC(=O)[C@H](C)NC(=O)[C@H](CO)NC(=O)[C@H](CC(C)C)NC(=O)[C@H](CCC(N)=O)NC(=O)[C@H](CC)NC(=O)[C@H](CC(C)C)NC(=O)[C@@H](NC(=O)[C@H](CCCCN)NC(=O)[C@H](CCCNC(=N)N)NC(=O)[C@H](Cc1ccc(OC)cc1)NC(=O)[C@H](CCCCNC(=N)N)NC(=O)[C@H](C)NC(=O)[C@@H](NC(=O)[C@H](Cc1c(F)c(F)c(F)c(F)c1F)NC(=O)[C@@H](NC(=O)[C@H](C)NC(=O)[C@H](CC(=O)O)NC(=O)[C@@H](CCCNC(=N)N)NC(=O)[C@H](Cc1ccc(O)cc1)NC(=O)CCCCCCCCCCCNC(=O)Cc1c(F)c(F)c(F)c(F)c1F)[C@@H](C)CC)[C@@H](C)O)C(C)C)[C@@H](C)CC)C(=O)N[C@H](CCCNC(=N)N)C(=O)N[C@@H](CCCCNC(=N)N)C(=O)NCCCCCCCCCCCC(N)=O` [AVR-352, 5FPhAC-Ada-Tyr-DArg-Asp-Ala-Ile-5FPhe-Thr-Ala-Har-Tyr(Me)-Arg-Lys-Val-Leu-Abu-Gln-Leu-Ser-Ala-Arg-Lys-Leu-Leu-Gln-Asp-Ile-Nle-DArg-Har-Ada-NH2] ({Phenylacetyl(2,3,4,5,6-F5)-12Ado}-Y[dR]DAI[Phe(F5)]TA[hArg]Y(Me)RKVL[Abu]QLSARKLLQDI[Nle][dR][hArg][12Ado]-NH2), the “In vitro relative inhibitory potency … HT-29” value in experiment [1] is on record as 1.197. In addition, the “In vitro relative inhibitory potency in comparison to MIA-602, NCI-N87” value in experiment [2] is 1.809. In experiment [4], the “In vitro relative inhibitory potency … HCC827” value is recorded as 2.01.
